Data on six compounds can be found in article PMC11548001, “Beware of N-Benzoyloxybenzamides” (Molecules, 2024).

The target in series [1] is T1, acid ceramidase (Homo sapiens, UniProt Q13510).
T1 construct: if using cell lysate, each well contained 7.45 µL assay buffer; endogenous in cells; host or cells: HEK293 cell lysate (supernatant after freeze-thaw and homogenisation)
T1 sequence (Q13510 22-395): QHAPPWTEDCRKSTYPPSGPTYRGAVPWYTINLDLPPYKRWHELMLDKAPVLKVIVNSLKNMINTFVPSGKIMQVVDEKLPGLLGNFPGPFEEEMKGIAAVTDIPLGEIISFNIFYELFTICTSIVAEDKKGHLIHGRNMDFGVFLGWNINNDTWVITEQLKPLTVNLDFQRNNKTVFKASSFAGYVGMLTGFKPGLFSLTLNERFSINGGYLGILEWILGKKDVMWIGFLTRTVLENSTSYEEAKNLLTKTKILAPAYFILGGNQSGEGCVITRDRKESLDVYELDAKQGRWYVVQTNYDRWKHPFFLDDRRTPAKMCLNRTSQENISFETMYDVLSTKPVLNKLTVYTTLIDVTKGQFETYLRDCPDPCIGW
As to the kind of experiment: in-house cell lysate acid ceramidase inhibition assay (HEK293 cell lysate, RBM14-C12 substrate). The series is classed as biochemical. The method, then:
Cultured HEK293 cells were grown until 80-90% confluency, collected, and washed twice in PBS. Collected cell pellets were resuspended in 0.2 M sucrose solution and freeze-thawed three times before being homogenised using a syringe and 25 G needle. Lysed cells were centrifuged at 17,000 g for 30 min at 4°C. The supernatant was collected, and protein quantified using Bradford reagent.
(§1) Acid ceramidase activity assay
(§2) To measure acid ceramidase activity, an assay previously described by Bedia et al., (2010) was miniaturised to a 384-well format. The enzymatic assay was carried out in black flat bottom 384-well plates. Briefly, if using cell lysate, each well contained 7.45 µL assay buffer (25 mM sodium acetate pH 4.5) and 0.05 µL 4 mM RBM14-C12 (Avanti, USA) in ethanol (20 µM final substrate concentration), 2 µg protein in 2.4 µL 0.2 M sucrose, and 0.1 µL compound (control wells contained 0.1 µL DMSO). If using purified acid ceramidase protein (Peak Proteins), the experimental set up was similar, but 100 nM protein was used, and the assay buffer contained 25 mM sodium acetate pH 4.5, 0.1% Pluronic F-127, 0.5 mM EGTA, 0.05% BSA, 1 mM TCEP. Blank wells contained the same reaction mixes but without the protein samples. The reaction started upon addition of the protein sample. The plate was incubated at 37°C for 3 h. The reaction was stopped upon addition of 10 µL fresh detection mix (2.5 mg/mL NaIO4 in 100 mM glycine/NaOH buffer pH 10.6) and the plate incubated for […]

Series [2] deals with T1, acid ceramidase. As to the kind of experiment: HTS acid ceramidase assay (modified reported assay, without Saposin D). The series is classed as biochemical. The text has this:
Despite continuing advances in structure-driven research, High-Throughput Screening (HTS) is still a valuable resource to find novel chemical starting points in drug discovery. Recently, the Medicines Discovery Institute initiated an HTS looking for small-molecule inhibitors of acid ceramidase, a lysosomal enzyme. […] This substantial increase in potency can be explained by the fact that to function properly, acid ceramidase requires a co-factor present in cells which was not present in the original HTS assay, Saposin D [4].

Series [3] in a line: Reactivity with the amino acid cysteine (LCMS). The series is classed as physicochemical. The settings on record: LCMS analysis. An excerpt:
Almost all reported small-molecule inhibitors of acid ceramidase are covalent in their mechanism of action by reaction with cysteine 143 [14, 15, 16, 17, 18, 19, 20, 21, 22]. In some cases, the covalent warhead itself is linked to promiscuity and intrinsic chemical instability. To probe whether 1 was chemically reactive in this way, a sample was stirred with the amino acid cysteine.

Series [4] concerns the target T1, acid ceramidase. As to the kind of experiment: purified protein acid ceramidase inhibition assay. The series is classed as biochemical. The settings on record: freshly synthesised sample. The method, then:
as §1, §2

Series [5] in a line: Stability in DMSO / d6-DMSO at room temperature (LCMS, 1H and 19F NMR). To be noted: for stability of DMSO stock solution (in words): LCMS. The series is classed as physicochemical. The method, then:
Key to this was running LCMS analysis on a d6-DMSO NMR sample that was left at room temperature for 6 weeks. Despite also degrading into the carboxylic acid 12, the mass of the other species was different by +6 Daltons compared to the non-deuterated sample. […] To monitor the speed of degradation, a fresh sample was analysed periodically by ^1H and ^19F NMR spectroscopy (Figure 4).

In series [6] the target is T1, acid ceramidase. As to the kind of experiment: Preincubation acid ceramidase activity assay. The series is classed as biochemical. The settings on record: pre-incubated at 0, 1 and 3 h at IC50 concentration, 37°C. An excerpt:
A partially degraded sample was purified by reverse-phase chromatography to isolate the DMSO-addition species. Although only a small amount of material was isolated, ^1H NMR spectroscopic analysis was consistent with the proposed structure (Scheme 3). The ^1H NMR data, in particular, were in line with that reported for a related compound (3f, see Supplementary Material). Such reactivity has been reported between N-pivaloyloxybenzamides and sulfoxides in the presence of an iron catalyst. The decomposition reaction to form a sulfoximine reported in this paper should be of interest to the synthetic community as it proceeds cleanly at ambient temperature without the need for reagents nor a catalyst; however, further optimisation of the reaction is beyond the scope of this paper.
Cultured HEK293 cells were grown until 80-90% confluency, collected, and washed twice in PBS. Collected cell pellets were resuspended in 0.2 M sucrose solution and freeze-thawed three times before being homogenised using a syringe and 25 G needle. […] The supernatant was collected, and protein quantified using Bradford reagent. […]
To measure acid ceramidase activity, an assay previously described by Bedia et al., (2010) was miniaturised to a 384-well format. […] Fluorescence was measured using a microplate reader (PHERAstar FSX; BMG Labtech) at excitation and emission wavelengths of 350 nm and 450 nm […]

Setting [7] is: cell lysate assay, supplied (HTS library) samples, read-out: IC50.

Turning to `O=C(NOC(=O)c1ccc(N2CCCCCC2)c([N+](=O)[O-])c1)c1ccc(OC(F)F)cc1` [compound 1], the IC50 is 7 nM at acid ceramidase [1] (cell lysate assay with addition of EDTA, read-out: IC50); 8 nM on acid ceramidase [1] (cell lysate assay with addition of N,N,N′,N′-tetrakis(2-pyridinylmethyl)-1,2-ethanediamine (Zn2+ chelator), read-out: IC50); 3.2 nM at acid ceramidase [1] (cell lysate assay, freshly synthesised sample, read-out: IC50); 11 nM on acid ceramidase [1] (setting [7]); 340 nM on acid ceramidase [2] (library sample); 163 nM on acid ceramidase [4]. In series [3], the “stability when stirred with cysteine (in words)” value is on record as “slowly decomposed into two main chemical species”. In addition, in series [5], the “stability of DMSO stock solution (in words)” value is “slowly degraded into two species”. Besides, the estimated half-life entry in series [5] (d6-DMSO, room temperature, 1H and 19F NMR integrations against time) is reported as “just over two days”. In addition, the “inhibition after pre-incubation (in words)” value against acid ceramidase [6] is on record as “time-dependent inhibition pattern expected of a covalent inhibitor”.

Take `CC(C)(C)c1ccc(C(=O)NOC(=O)c2ccc(Cl)c(Cl)c2)cc1` [compound 2]: the IC50 at acid ceramidase [1] (setting [7]) is 237 nM. Further, on acid ceramidase [2] (Figure 1), the “inhibition (in words)” value is “moderate inhibition”.

As for `O=C=Nc1ccc(OC(F)F)cc1` [compound 7], the IC50 on acid ceramidase [1] was ~100000 nM. For the same compound, the “stability of DMSO stock solution (in words)” value in series [5] is listed as “fully hydrolysed to 8”.

For `O=C(Nc1ccc(OC(F)F)cc1)Nc1ccc(OC(F)F)cc1` [compound 8], the IC50 at acid ceramidase [1] (cell lysate assay, read-out: IC50) is ~100000 nM.

As for `O=C(O)c1ccc(N2CCCCCC2)c([N+](=O)[O-])c1` [compound 12], the “activity (in words)” value on acid ceramidase [1] (cell lysate assay) was “inactive”.

Turning to `CS(C)(=O)=NC(=O)c1ccc(OC(F)F)cc1` [compound 13], the “activity (in words)” value on acid ceramidase [1] (cell lysate assay) is “no activity”.
